We go through 1 compound from patent US10702604B2, “Lipid nanocapsules comprising a retinoid, nanodispersion and composition containing the same, process for preparing the same and use thereof in dermatology” (GALDERMA RESEARCH & DEVELOPMENT, priority 2012, dated 2020).

A short description of data set [1]: Maximum solubility of compound A in various oily phases. It counts as physicochemical.
Data set [2] can be described thus: Chemical stability of compound A in oily phases (HPLC-UV). Format: physicochemical. The method, then:
The stability of the active agent was evaluated by liquid chromatography coupled to a UV detector (HPLC-UV).

Data set [3] in a line: Chemical stability of compound A in gel compositions (HPLC-UV assay). It counts as physicochemical. To be noted: 4° C., room temperature and 40° C., up to 6 to 7 months. Here is the method:
Compositions 1 and 2 according to Example 3 were placed under various stability conditions: 4° C., room temperature and 40° C., and were monitored for 6 to 7 months. At each stability checkpoint, compound A was assayed by HPLC-UV.

The next data set deals with ear of BALB/C mice. As to the kind of experiment: Tolerance study: pro-inflammatory effect after single application to the mouse ear (ear thickness). To be noted: single topical application, 0.01% in acetone, 20 μl. Format: in vivo. Here is the method: The aim of the study is to evaluate the effect of a composition according to the invention on the pro-inflammatory activity associated with retinoids in general.
A single application of 20 μl of the test products was administered to the ear of the mice on day 1. Clinical observations and measurements of the mouse ear thickness, directly linked to inflammation, are performed from day 2 up to day 12.

[4] abbreviates: in caprylic/capric acid triglycerides (Miglyol 812N).
Where [5] appears, read: in diisopropyl adipate (Crodamol DA).
Setting [6] is: in macrogol oleate (Labrafil M1944CS).
[7] abbreviates: in propylene glycol dicaprylate/dicaprate (Myritol PC).
[8] abbreviates: in propylene glycol monolaurate (Lauroglycol FCC).

In the case of `CC(C)(C)c1cc(-c2cc(-c3ccc(C(=O)O)cc3)ccc2OCCO)ccc1N1CCCC1` [Compound A, 3″-tert-butyl-4′-(2-hydroxyethoxy)-4″-pyrrolidin-1-yl-[1,1′;3′,1″]-terphenyl-4-carboxylic acid], the Maximum solubility stood at 0.019 % m/m in data set [1] (setting [4]); 0.297 % m/m in data set [1] (setting [5]); 0.156 % m/m in data set [1] (setting [6]); 0.0001 % m/m in data set [1] (in mineral oil); 0.137 % m/m in data set [1] (in octyldodecanol (Eutanol G)); 0.069 % m/m in data set [1] (setting [7]). The Maximum solubility worked out at 0.802 % m/m in data set [1] (in propylene glycol monocaprylate (Capryol 90)), 0.296 % m/m in data set [1] (setting [8]) and 0.011 % m/m in data set [1] (in sweet almond oil). In addition, the Stability is 6 months RT/40 °C in data set [2] (setting [4]); 6 months RT/40 °C in data set [2] (setting [5]); 6 months RT/40 °C in data set [2] (setting [6]); “Unstable” in data set [2] (in octyldodecanol (Eutanol G)); “Unstable” in data set [2] (setting [7]); 6 months RT/40 °C in data set [2] (in propylene glycol monocaprylate (Capryol 90), RT = room temperature). Besides, the Stability in data set [2] (setting [8]) and in data set [2] (in sweet almond oil) was 6 months RT/40 °C in each case. Besides, in data set [3], the “Chemical stability of compound A in the gel compositions” value is recorded as “chemically stable”. Besides, in the data set on ear of BALB/C mice, the “Increase in the thickness of the mouse ear versus acetone alone” value is 59%.
